Experimental findings from patent publication US10874743B2, “IRAK degraders and uses thereof” (Kymera Therapeutics, Inc., priority 2017, dated 2020) are described below.

The structures appear in SMILES notation. Bounds are passed on as bounds.

For this assay, the target named is T1, IRAK4 (Homo sapiens, UniProt Q9NWZ3).
T1 sequence (Q9NWZ3 1-460): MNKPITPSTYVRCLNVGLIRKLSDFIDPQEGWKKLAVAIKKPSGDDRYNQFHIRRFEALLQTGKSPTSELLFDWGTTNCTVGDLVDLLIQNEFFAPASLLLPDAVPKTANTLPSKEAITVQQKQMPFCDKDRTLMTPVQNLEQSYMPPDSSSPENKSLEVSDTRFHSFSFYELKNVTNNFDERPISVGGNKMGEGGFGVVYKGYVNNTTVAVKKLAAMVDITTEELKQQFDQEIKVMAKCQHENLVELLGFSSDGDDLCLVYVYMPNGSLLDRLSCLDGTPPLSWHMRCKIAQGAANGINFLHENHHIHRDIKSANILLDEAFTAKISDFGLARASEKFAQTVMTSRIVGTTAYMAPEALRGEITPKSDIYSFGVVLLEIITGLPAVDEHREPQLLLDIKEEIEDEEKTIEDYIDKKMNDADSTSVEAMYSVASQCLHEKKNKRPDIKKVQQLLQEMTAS
Description: OCI-LY-10 MSD assay for IRAK4 DC50. The format is cell-based. More on the design: endogenous in cells; host or cells: OCI-LY10. The settings on record: OCI-LY10 cells, 4 hr incubation, concentration required to degrade 50% of protein. Here is the method:
A MSD assay was run to determine the concentration of compound required to degrade 50% of protein (DC50).
Day 1 • Compounds were reconstituted to 10 mM in stock solutions. The stock solutions were diluted to 5 mM and 45 μL of each dilution was transferred to a 384 pp-plate. A 3 fold, 8-point serial dilution was performed by transferring 15 μL of compound into 30 μL DMSO using Janus. • 20 nL of each compounds were added into each well of a 96-well plate (Corning3799). • OCI-Ly10 cells were seeded into the 96-well plate at 3.0*10e^5 cells/100 μL/well. • The cell plate was shaken at 720 rpm for 5 min and incubated for 4 hr. • The 100 μL of cells were transferred into the 96-PCR plate and spun down at high speed for 5 mins. • The supernatant was discarded and 100 μL of RIPA lysis buffer with proteinase inhibitors was added per well. The plate was then sealed and shaken at 600 rpm and 4° C. for about 20 min. • The plate was then spun down at high speed (about 3200 g) for 30 min and then frozen in a −80° C. fridge. • A bare MSD plate (L15XA-3) was coated with 2 μg/mL of capture antibody (mouse Anti-IRAK4 antibody [2H9], ab119942) in PBS to 40 μL/well and incubated overnight at 4° C.
Day 2 • The MSD coated plate was washed 3× (150 μL/well) with 1×TBST (CST #9997S). • The MSD plate was then blocked with 150 μL of blocking buffer [3% Blocker A (MSD, R93BA-4) in TBST]/well and shaken for 1 hr at R^† and 600 rpm. • The MSD plate was washed 3× (150 μL/well) with 1×TBST. The sample RIPA lysates were then added to the MSD plate (50 μL/well) and shaken for 1 hr at R^† and 600 rpm. • The MSD plate was washed 3× (150 μL/well) with 1×TBST and the primary detection antibody (Rabbit Anti-IRAK4 antibody [Y279], ab32511) was added to a final concentration of 1 μg/ml with 25 μL/well. The plate was then shaken for 1 hr at RT and 600 rpm. • The MSD plate was washed 3× (150 μL/well) with 1×TBST and the secondary detection antibody, SULFO-TAG anti-species antibody (Anti Rabbit Antibody (R32AB-5) MSD, R32AB-1) was added to a volume of 25 μL/well at a final concentration of 1 jag/ml. The plate was then shaken for 1 hr at RT and 600 rpm. • The MSD plate was then washed 3× (150 μL/well) with 1×TBST. • lx MSD reading buffer was then added (150 μL/well) and the plate was diluted with 4× water. (MSD, R92TC-2) • The MSD instrument was then read.
Data Analysis • The remaining activity was calculated following the formula below:
Calculate • The DC50 was calculated by fitting the Curve using Xlfit (v5.3.1.3), equation 201: Y=Bottom+(Top−Bottom)/(1+10^((Log IC50−X)*HillSlope))
OCI-LY-10 DC50 results. The letter codes for IRAK4 DC50 indicate the concentration of compound required to degrade 50% of protein: A (<0.05 μM), B (0.05-0.1 μM), C (0.1-0.5 μM), D (0.5-1.0 μM), and E (>1.0 μM).
Usually DC50 stands for the concentration at which degradation of the target reaches its halfway point. Low readings indicate a more potent degrader, high ones a less potent degrader. As to `Cn1c(=O)n(C2CCC(=O)NC2=O)c2cccc(CCCOCCOCCNC(=O)c3ccc(-n4cc(NC(=O)c5coc(-c6ccnc(NCC7CC7)c6)n5)c(C(F)F)n4)cc3)c21` (stereo not drawn) [I-253], the DC50 was under 50 nM. Compound `O=C1CCC(N2C(=O)c3cccc(NCCOCCOCCNC(=O)c4ccc(-n5cc(NC(=O)c6coc(-c7ccnc(NCC(F)(F)F)c7)n6)c(N6CCN(CCO)C6=O)n5)cc4)c3C2=O)C(=O)N1` (stereo not drawn) [I-428] returned a DC50 of under 50 nM.

`Cc1ncsc1-c1ccc(CNC(=O)[C@@H]2C[C@@H](O)CN2C(=O)[C@@H](NCCOCCOCCOCCNCc2ccc(-n3cc(NC(=O)c4coc(-c5ccnc(NCC(F)(F)F)c5)n4)c(C(N)=O)n3)cc2)C(C)(C)C)cc1` [I-415] had a DC50 of over 1000 nM. With `Cn1c(=O)n(C2CCC(=O)NC2=O)c2cccc(CCCOCC(C)(C)COCCCNCc3ccc(-n4cc(NC(=O)c5coc(-c6ccnc(NCC7CC7)c6)n5)c(C(F)F)n4)cc3)c21` (stereo not drawn) [I-419] the figure was 100 to 500 nM. In turn, `Cn1c(=O)n(C2CCC(=O)NC2=O)c2ccc(CCCOCC(C)(C)COCCCNCc3ccc(-n4cc(NC(=O)c5coc(-c6ccnc(NCC7CC7)c6)n5)c(C(F)F)n4)cc3)cc21` (stereo not drawn) [I-421] yielded a DC50 of 100 to 500 nM. In the case of `Cn1cc(NC(=O)c2coc(-c3ccncc3)n2)c(C(=O)NCCOCCOCCOCCNc2cccc3c2C(=O)N(C2CCC(=O)NC2=O)C3=O)n1` (stereo not drawn) [I-301] it was over 1000 nM. In the case of `Cn1cc(NC(=O)c2coc(-c3ccnc(NCC(F)(F)F)c3)n2)c(CNCCCOCC(C)(C)COCCCc2cccc3c2n(C)c(=O)n3C2CCC(=O)NC2=O)n1` (stereo not drawn) [I-420] it was over 1000 nM; in that of `Cn1cc(NC(=O)c2cocn2)c(C(=O)NCCOCCOCCOCCNc2cccc3c2C(=O)N(C2CCC(=O)NC2=O)C3=O)n1` (stereo not drawn) [I-300], over 1000 nM. Compound `Cn1cc(NC(=O)c2coc(-c3ccnc(NCC(F)(F)F)c3)n2)c(C(=O)NCCOCCOCCOCCOCCOCCNc2cccc3c2C(=O)N(C2CCC(=O)NC2=O)C3=O)n1` (stereo not drawn) [I-214] yielded a DC50 of over 1000 nM. With `NC(=O)c1nn(-c2ccc(C(=O)NCCOCCCOCCNc3cccc4c3C(=O)N(C3CCC(=O)NC3=O)C4=O)cc2)cc1NC(=O)c1coc(-c2ccnc(NCC3CC3)c2)n1` (stereo not drawn) [I-213] the figure was under 50 nM. In the case of `Cn1c(=O)n(C2CCC(=O)NC2=O)c2ccc(CCCCOCCCCNC(=O)c3ccc(-n4cc(NC(=O)c5cnn6ccc(N7CCNCC7)nc56)c(C(F)F)n4)cc3)cc21` (stereo not drawn) [I-445, N-[3-(difluoromethyl)-1-[4-[4-[4-[1-(2,6-dioxo-3-piperidyl)-3-methyl-2-oxo-benzimidazol-5-yl]butoxylbutyl]carbamoyl]phenyl]pyrazol-4-yl]-5-piperazin-1-yl-pyrazolo[1,5-a]pyrimidine-3-carboxamide] it was 50 to 100 nM. With `O=C1CCC(N2C(=O)c3cccc(N4CCN(CCOCCNCc5ccc(-n6cc(NC(=O)c7coc(-c8ccnc(NCC9CC9)c8)n7)c(C(F)F)n6)cc5)CC4)c3C2=O)C(=O)N1` (stereo not drawn) [I-390] the figure was 100 to 500 nM; with `Cn1c(=O)n(C2CCC(=O)NC2=O)c2ccc(CCCCCCC(=O)N3CCN(C4CCC(Nc5ncnn6ccc(C7CCOCC7)c56)CC4)CC3)cc21` (stereo not drawn) [I-438], over 1000 nM; with `NC(=O)c1nn(-c2ccc(CNCCCOCCCOCCCNc3cccc4c3C(=O)N(C3CCC(=O)NC3=O)C4=O)cc2)cc1NC(=O)c1coc(-c2ccnc(NCC3CC3)c2)n1` (stereo not drawn) [I-398], 100 to 500 nM. As to `CC(C)(C)[C@H](NC(=O)COCCOCCOCCNc1cccc2c1C(=O)N(C1CCC(=O)NC1=O)C2=O)C(=O)N1C[C@H](OC(=O)[C@@H]2CCCN2)C[C@H]1C(=O)NCc1ccc(-n2cc(NC(=O)c3coc(-c4ccnc(NCC5CC5)c4)n3)c(C(F)F)n2)cc1` (stereo partly drawn) [I-286, [(3R,5S)-5-[[4-[4-[[2-[2-(cyclopropylmethylamino)-4-pyridyl]oxazole-4-carbonyl]amino]-3-(difluoromethyl)pyrazol-1-yl]phenyl]methylcarbamoyl]-1-[(2S)-2-[[2-[2-[2-[2-[[2-(2,6-dioxo-3-piperidyl)-1,3-dioxo-isoindolin-4-yl]amino]ethoxy]ethoxy]ethoxy]acetyl]amino]-3,3-dimethyl-butanoyl]pyrrolidin-3-yl](2S)-pyrrolidine-2-carboxylate], the DC50 was over 1000 nM.
